Results on six molecules are retold here after US7371777B2, “Cyclic compound and PPAR agonist” (Eisai Co., Ltd., priority 2001, dated 2008).

Molecules are shown by their SMILES.

Experiment in all cases: Determination of transcriptional activity (GAL4-PPAR LBD chimera, PLAP reporter, CV-1 cells)
Format in all cases: cell-based

The target in assay [1] is T1, PPARβ (Homo sapiens, UniProt Q03181).
T1 construct: 138-440 (NUC-1); expressed in transfected cells; host or cells: CV-1 (ATCC CCL-70)
T1 sequence (Q03181 138-440): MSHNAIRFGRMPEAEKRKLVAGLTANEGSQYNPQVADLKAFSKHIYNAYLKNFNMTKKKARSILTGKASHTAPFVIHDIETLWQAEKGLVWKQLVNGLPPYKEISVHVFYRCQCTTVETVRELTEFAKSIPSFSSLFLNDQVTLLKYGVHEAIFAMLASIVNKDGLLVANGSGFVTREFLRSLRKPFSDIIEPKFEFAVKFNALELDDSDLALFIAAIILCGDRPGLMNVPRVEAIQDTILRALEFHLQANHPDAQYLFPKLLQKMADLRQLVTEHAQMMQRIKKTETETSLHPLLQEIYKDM
The following applies: GAL4-human NUC-1 LBD (138-440) chimera, PLAP activity 24 hours after addition of compound. The text has this:
(§1) Determination of Transcriptional Activity
(§2) (1) Test Method: A GAL4-PPAR LBD chimera expression vector was constructed by ligating human PPAR167-468 (PPARa), 138-440 (NUC-1) and 174-475 (PPARg) amino acid regions (LBD: Ligand Binding Domain) to a yeast transcriptional factor GAL4 1-147 amino acid region. As the reporter gene, PLAP (Placental Alkaline Phosphatase) was used, and this was ligated downstream of a TK promoter containing a 5-copy GAL4 DNA binding element to construct a vector. As host cells, CV-1 (ATCC CCL-70) were used. That is, CV-1 cells were spread at a density of 5×10^5 cells on a 35-mm dish and cultured in 10% FCS/DMEM for 24 hours, and using FuGENE 6 transfection reagent, the cells were co-transfected with the GAL4-PPAR LBD expression vector and GAL4 DBD-TK-PLAP expression vector. Twentyfour hours after this transfection, the cells were spread again on a 96-well plate at a density of 1×10^4/well and further cultured for 24 hours. After 24 hours, the medium was exchanged with DMEM containing 10% FCS, which was previously treated at 65° C. for inactivating intrinsic alkaline phosphatase, and a test compound was added at an arbitrary concentration. The transcriptional activity was determined in terms of PLAP activity secreted 24 hours after addition of the compound, to calculate EC50. The PLAP activity was determined after adding […] and incubating the mixture at room temperature for 1 hour.

Assay [2] addresses T2, PPARα (Homo sapiens, UniProt Q07869).
T2 construct: human PPAR167-468 (PPARa); expressed in transfected cells; host or cells: CV-1 (ATCC CCL-70)
T2 sequence (Q07869 167-468): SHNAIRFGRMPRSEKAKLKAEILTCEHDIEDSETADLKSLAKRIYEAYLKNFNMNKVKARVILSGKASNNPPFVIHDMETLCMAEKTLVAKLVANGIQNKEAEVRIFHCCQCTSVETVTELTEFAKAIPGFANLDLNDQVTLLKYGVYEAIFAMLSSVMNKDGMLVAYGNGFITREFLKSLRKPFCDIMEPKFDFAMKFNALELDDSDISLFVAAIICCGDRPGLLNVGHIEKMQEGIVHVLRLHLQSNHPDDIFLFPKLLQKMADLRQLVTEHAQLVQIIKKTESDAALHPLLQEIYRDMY
The following applies: GAL4-human PPARα LBD (167-468) chimera, PLAP activity 24 hours after addition of compound.
From the text: as §1, §2

Assay [3] addresses T3, PPARγ (Homo sapiens, UniProt P37231).
T3 construct: 174-475 (PPARg); expressed in transfected cells; host or cells: CV-1 (ATCC CCL-70)
T3 sequence (P37231 204-505): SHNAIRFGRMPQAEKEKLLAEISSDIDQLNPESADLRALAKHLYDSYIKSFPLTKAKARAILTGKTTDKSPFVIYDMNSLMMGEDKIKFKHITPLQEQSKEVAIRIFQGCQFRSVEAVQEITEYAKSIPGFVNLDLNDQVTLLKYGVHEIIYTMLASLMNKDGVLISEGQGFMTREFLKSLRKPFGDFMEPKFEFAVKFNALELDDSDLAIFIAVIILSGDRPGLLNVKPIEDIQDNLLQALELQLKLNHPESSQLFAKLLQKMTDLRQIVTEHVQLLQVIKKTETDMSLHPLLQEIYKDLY
To be noted: GAL4-human PPARγ LBD (174-475) chimera, PLAP activity 24 hours after addition of compound.
From the text: as §1, §2

By EC50 is commonly meant the concentration at which the effect is half-maximal. A lower EC50 goes with greater potency. In the case of `CCCOc1ccc(C(=O)NCc2cc(CC3(C(=O)O)CCCO3)ccc2OC)c(Cl)c1` (stereo not drawn) [Ex. 1, 2-(3-{[(2-Chloro-4-propoxybenzoyl)amino]methyl}-4-methoxybenzyl)tetrahydro-2-furancarboxylic acid], the EC50 in assay [1] was 533 nM; in assay [2], 28 nM; in assay [3], 56 nM.

Turning to `COc1ccc(CC2(C(=O)O)CCCO2)cc1CNC(=O)c1ccc(OC2CCCC2)cc1Cl` (stereo not drawn) [Ex. 5, 2-(3-{[(2-Chloro-4-cyclopentyloxybenzoyl)amino]methyl}-4-methoxybenzyl)tetrahydro-2-furancarboxylic acid], the EC50 in assay [1] came to 1320 nM; in assay [2], 15 nM; in assay [3] it was 40 nM.

As to `COc1ccc(CC2(C(=O)O)CCCO2)cc1CNC(=O)c1ccc(C2CCCCC2)cc1Cl` (stereo not drawn) [Ex. 6, 2-(3-{[(2-Chloro-4-cyclohexylbenzoyl)amino]methyl}-4-methoxybenzyl)tetrahydro-2-furancarboxylic acid], the results for the EC50 in assay [1], in assay [2] and in assay [3] were 1210 nM, 11 nM and 78 nM, respectively.

As to `CCCOc1ccc(C(=O)NCc2cc(CC3(C(=O)O)C=CCO3)ccc2OC)c(Cl)c1` (stereo not drawn) [Ex. 49, 2-(3-{[(2-Chloro-4-propoxybenzoyl)amino]methyl}-4-methoxybenzyl)-2,5-dihydro-2-furancarboxylic acid], the EC50 was 771 nM in assay [1], 54 nM in assay [2] and 37 nM in assay [3].

For the molecule `CCOc1ccc(C(=O)NCc2cc(CC3(C(=O)O)CCCO3)ccc2OCC)c(Cl)c1` (stereo not drawn) [Ex. 72, 2-(3-{[(2-Chloro-4-ethoxybenzoyl)amino]methyl}-4-ethoxybenzyl)tetrahydro-2-furancarboxylic acid], the values for the EC50 in assay [1], in assay [2] and in assay [3] were 234 nM, 92 nM and 40 nM, respectively.

As for `CCCOc1ccc(C(=O)NCc2cc(CC3(C(=O)O)CCCO3)ccc2OCC)c(Cl)c1` (stereo not drawn) [Ex. 73, 2-(3-{[(2-Chloro-4-propoxybenzoyl)amino]methyl}-4-ethoxybenzyl)tetrahydro-2-furancarboxylic acid], the figures for the EC50 in assay [1], in assay [2] and in assay [3] were 38 nM, 13 nM and 5 nM, respectively.
